In paper PMC7395068, “The evolution of strategies to minimise the risk of human drug-induced liver injury (DILI) in drug discovery and development” (Archives of Toxicology, 2020):
Where two headings read alike, the source gives them in different places.

Key:
[1] = Plasma free fraction (fu) and unbound Cmax (Cmax,u); type: in vitro ADME, human; details: unbound plasma Cmax
Experimental: The prediction of DILI severity was evaluated further using the 3D combined HCI assays using plasma-free fraction. The majority of fu values were obtained from literature, when unavailable in-house prediction was utilised. Unbound plasma Cmax concentrations (Cmax,u) were derived by multiplying total plasma Cmax with the corresponding free fraction (fu) for each compound.

HepG2 = test system: HepG2; design: method as in Albrecht 2019; details: In vitro Assay; ref Albrecht 2019; cited from earlier work
[2] = cited from earlier work
[3] = test system: primary human hepatocytes, NIH3T3 fibroblasts, BSEP, CYP3A4; details: cited from earlier work
HepG2 cells = details: cited from earlier work
[4] = test system: THLE or HepG2 cells, isolated mitochondria, BSEP; details: cited from earlier work
PHH [5] = details: cited from earlier work
hLiMTs [6] = details: cited from earlier work
PHH spheroids = details: cited from earlier work
[7] = test system: HepG2 C3A spheroid, BSEP, Glu/Gal in HepG2 cells, bioactivation; details: cited from earlier work
[8] = read-out: Human plasma Cmax; total plasma Cmax.tot, median of 9 literature references; cited from earlier work
[9] = plasma free fraction; cited from earlier work
[10] = cited from earlier work; remark: listed apart in the source
PHH [11] = details: In vitro Assay; ref Albrecht 2019; cited from earlier work
[12] = test system: THLE-Null and THLE-3A4 cells; details: In vitro Assay; ref Gustafsson 2014; cited from earlier work
[13] = test system: HepG2 cells, primary human hepatocytes; details: In vitro Assay; ref Garside 2014; cited from earlier work
[14] = test system: isolated mouse liver mitochondria; details: In vitro Assay; ref Porceddu 2012; cited from earlier work
[15] = ref Chen 2011; cited from earlier work
rBsep = details: In vitro Assay; ref Dawson 2012; cited from earlier work
hLiMTs [16] = experiment: Combined HCI (HCS) and cellular ATP 3D assay in hLiMTs; details: for AC50 / minimal effective concentration: Homo sapiens
HepaRG spheroids = experiment: Combined HCI (HCS) and cellular ATP 3D assay in HepaRG spheroids; details: for AC50 / minimal effective concentration: Homo sapiens
[17] = In vitro Assay, ref Schadt 2015
[18] = In vitro Assay, ref Persson 2013
[19] = Modeled in vitro assays (cytotoxicity, mitochondrial dysfunction, BSEP), ref Aleo et al. 2019
[20] = In vitro Assay, ref Proctor 2017
[21] = Microtissue model structural based (HCI), combined HCS and ATP, MEC < 25 × Cmax.tot cut-off

Cc1ccc(C(=O)c2cc(O)c(O)c([N+](=O)[O-])c2)cc1 [tolcapone, reference compound]
24.1 µM: minimal effective concentration (hLiMTs [16]; read-out: HCS endpoint MEC)
0.001: fu [9]
+VE (Partition Hybrid HRM Score ≥8): Partition Hybrid HRM Score ≥8, Aleo (2019) [4, 19]
-ve: hLiMTs <100x Avg Cmaxu ATP (hLiMTs [16]; hLiMTs, ATP endpoint, cut-off <100x Avg Cmaxu) | hLiMTs <100x Avg Cmaxu HCS (hLiMTs [16]; hLiMTs, HCS endpoints, cut-off <100x Avg Cmaxu) | hLiMTs <10 uM All (hLiMTs [16]; hLiMTs, all endpoints, cut-off <10 uM) | hLiMTs <100x Avg Cmaxu All (hLiMTs [16]; hLiMTs, all endpoints, cut-off <100x Avg Cmaxu) | HepaRG <100x Avg Cmaxu ATP (HepaRG spheroids; HepaRG, ATP endpoint, cut-off <100x Avg Cmaxu) | HepaRG <100x Avg Cmaxu HCS (HepaRG spheroids; HepaRG, HCS endpoints, cut-off <100x Avg Cmaxu) | HepaRG <10 uM All (HepaRG spheroids; HepaRG, all endpoints, cut-off <10 uM) | HepaRG <100x Avg Cmaxu All (HepaRG spheroids; HepaRG, all endpoints, cut-off <100x Avg Cmaxu)
161 µM: AC50 (hLiMTs [16]; read-out: ATP endpoint AC50)
0.048 µM: Human plasma Cmax,u [1]
+VE: Cytotoxicity HepG2 48 hrs (HepG2) | DILI +VE (5-8), DILI -VE (-4) ([2]; ref Chen 2016) | DILI in vitro assay prediction, Schadt (2015) ([3]; BSEP & Metabolism based, ref Schadt et al. 2015) | Cellular toxicity (3T3 cells) [3, 17] | Combined Assay [3, 17] | GSH adduct HML [3, 17] | Hepatocyte cellular toxicity [3, 17] | hBSEP inhibition [3, 17] | Structural based (HCI) (HepG2 cells; [18]) | Partition Hybrid HRM Score ([4]; In vitro Assay, ref Aleo 2019) | Ro2 Hybrid HRM Score ([4]; In vitro Assay, ref Aleo 2019) | Bayesian Machine Learning DILI prediction, Williams (2019) ([7]; Bayesian modeling, ref Williams et al. 2019) | Bayesian Machine Learning ([7]; In vitro Assay, ref Williams 2019) | In vivo DILI ([10]; ref Albrecht 2019) | In vivo DILI ([10]; ref Aleo 2019) | In vivo DILI ([10]; ref Dawson 2012) | In vivo DILI ([10]; ref Garside 2014) | In vivo DILI ([10]; ref Gustafsson 2014) | In vivo DILI ([10]; ref Persson 2013) | In vivo DILI ([10]; ref Porceddu 2012) | In vivo DILI ([10]; ref Proctor 2017) | In vivo DILI ([10]; ref Schadt 2015) | In vivo DILI ([10]; ref Vorrink 2018) | In vivo DILI ([10]; ref Williams 2019) | Cytotoxicity PHH 48 hrs (PHH [11]) | THLE-Null [12] | Cluster 1-6 +VE Assay [13] | in vitro data EC2<=1x Cmax [14] | Inhibition of rBsep cutoff<1& cmax u>.2 (rBsep) | Inhibition of rBsep cutoff<3 (rBsep)
+VE (Rule of Two hybrid HRM Score ≥3): Rule of Two hybrid HRM Score ≥3, Aleo (2019) [4, 19]
+VE (Partition Hybrid HRM Score ≥4): Partition Hybrid HRM Score ≥4, Aleo (2019) [4, 19]
8: DILI Score (FDA) (1-8) [15]
+VE (IC20 < 20 × Cmax.tot cut-off): hLiMTs ATP <20 x Cmax (PHH spheroids; In vitro Assay, ref Vorrink 2018) | DILI in vitro assay prediction, Vorrink (2018) (PHH spheroids; PHH spheroids, ATP, 14 days, IC20 < 20 × Cmax.tot, ref Vorrink et al. 2018)
20.5 µM: minimal effective concentration (HepaRG spheroids; HepaRG, read-out: ATP endpoint MEC)
114 µM: minimal effective concentration (hLiMTs [16]; read-out: ATP endpoint MEC)
vMost-DILI-Concern: DILI severity category ([2]; ref Chen 2016)
-VE: MitoTox 3T3 [3, 17] | TDI CYP3A4 [3, 17] | Cluser analysis (HepG2 cells; [18]) | DILI in vitro assay prediction, Persson (2013) (HepG2 cells; Structural based (HCI), HepG2, ref Persson et al. 2013) | PHH/100uM, Proctor (2017) (PHH [5]; 2D PHH, ATP, IC50 threshold 100 µM, ref Proctor et al. 2017) | THLE-Null/3A4 [12] | in vitro data EC20<=2uM [14]
+VE (MEC < 25 × Cmax.tot cut-off): DILI prediction hLiMTs (HCS-MEC) (hLiMTs [16]; [21]) | DILI prediction HepaRG spheroids (HCS-MEC) (HepaRG spheroids; [21])
Most: DILI severity category (Chen et al. [2016]) ([2]; LTKB DILIrank category, ref Chen et al. 2016) | DILI severity category (Chen 2016) ([2]; human DILI classification, LTKB DILIrank, ref Chen et al. 2016) | DILI severity category ([2]; human DILI severity, ref Chen et al.)
+VE (IC50 < 100 × Cmax.tot): PHH/100xCmax, Proctor (2017) (PHH [5]; 2D PHH, ATP, IC50 < 100 × Cmax.tot, ref Proctor et al. 2017) | hLiMTs/100xCmax, Proctor (2017) (hLiMTs [6]; hLiMTs, ATP, IC50 < 100 × Cmax.tot, ref Proctor et al. 2017)
47.6 µM: Cmax [8]
35.3 µM: AC50 (HepaRG spheroids; HepaRG, read-out: ATP endpoint AC50)
+VE (IC50 threshold of 100 µM): PHH ATP <100uM (PHH [5]; [20]) | hLiMTs ATP <100uM (hLiMTs [6]; [20]) | hLiMTs/100uM, Proctor (2017) (hLiMTs [6]; hLiMTs, ATP, IC50 threshold 100 µM, ref Proctor et al. 2017)
+VE (Rule of Two hybrid HRM Score ≥8): Rule of Two hybrid HRM Score ≥8, Aleo (2019) [4, 19]
36.1 µM: AC50 (HepaRG spheroids; HepaRG, read-out: HCS endpoint AC50)
3: Assigned DILI category ([10]; Chen et al. 2016 or literature alignment, ref Chen et al. 2016)
+ve: hLiMTs <25x Avg Cmax ATP (hLiMTs [16]; hLiMTs, ATP endpoint, cut-off <25x Avg Cmax) | hLiMTs <25x Avg Cmax HCS (hLiMTs [16]; hLiMTs, HCS endpoints, cut-off <25x Avg Cmax) | hLiMTs <25x Avg Cmax All (hLiMTs [16]; hLiMTs, all endpoints (ATP and HCS), cut-off <25x Avg Cmax) | hLiMTs Cmax max All (hLiMTs [16]; hLiMTs, all endpoints, Cmax max used) | hLiMTs Cmax min All (hLiMTs [16]; hLiMTs, all endpoints, Cmax min used) | HepaRG <25x Avg Cmax ATP (HepaRG spheroids; HepaRG, ATP endpoint, cut-off <25x Avg Cmax) | HepaRG <25x Avg Cmax HCS (HepaRG spheroids; HepaRG, HCS endpoints, cut-off <25x Avg Cmax) | HepaRG <25x Avg Cmax All (HepaRG spheroids; HepaRG, all endpoints (ATP and HCS), cut-off <25x Avg Cmax) | HepaRG Cmax max All (HepaRG spheroids; HepaRG, all endpoints, Cmax max used) | HepaRG Cmax min All (HepaRG spheroids; HepaRG, all endpoints, Cmax min used)
21 µM: minimal effective concentration (HepaRG spheroids; HepaRG, read-out: HCS endpoint MEC)
60.8 µM: AC50 (hLiMTs [16]; read-out: HCS endpoint AC50)
